How the values were obtained:
hamster flank organ = assay: Reduction of hair growth (hair mass) on hamster flank organ after topical application; type: in vivo, Golden Syrian hamster; settings: for Percent Inhibition of Hair Growth: vs vehicle-treated organ
Source text: L-alanosine was mixed with separate portions of the foregoing vehicle to provide specimens containing 0.1, 0.5, 1, 2, and 6% by weight respectively of the inhibitor and the pH was adjusted to pH 7.5 with sodium hydroxide.
Four groups (eight animals in each group) of male intact Golden Syrian hamsters were provided. These animals were considered acceptable models for human beard hair growth in that they display oval shaped flank organs, one on each side, each about 8 mm. in major diameter, which grow thick black and coarse hair similar to human beard hair. These organs produce hair in response to androgens in the hamster. The flank organs of each hamster were depilated by applying a thioglycolat-- based chemical depilatory (Surgex), and to one organ of each animal was applied 10-25 μl. of vehicle alone once a day, while to the other organ of each animal was applied an equal amount of vehicle containing inhibitor. After three weeks of such applications (five days a week), the flank organs were shaved and the amount of recovered hair (hair mass) from each was weighed. The extent of reduction in hair growth by the inhibitor was expressed as the percent decrease in hair mass on the organ treated with inhibitor as compared to the organ treated with vehicle alone. As a control, one group of eight animals had both flank organs of each animal treated with vehicle alone.
A series of compositions was prepared containing various percentages by weight of N-phosphonacetyl-L-aspartic acid (PALA) in the vehicle described in Example 1 above adjusted to pH 4.5, and applied to hamster flank organs under the same conditions as described in Example 1. The reduction in hair growth observed after three weeks was as follows: […]

[1] = test system: adenylosuccinate synthetase; assay: Adenylosuccinate synthetase activity in hamster hair follicles after topical treatment; type: in vivo; settings: 10% solution, twice over a 24 hour period
[2] = test system: adenosine nucleotide contents of hair follicles; assay: Adenosine nucleotide contents of flank organ hair follicles after topical treatment; type: in vivo, hamster; settings: 10% in vehicle, three days of daily treatments
Description: The effect of the enzyme inhibition, was further shown by measurements of hair follicle nucleotide levels after topical treatment with L-alanosine. A group of eight hamsters was treated topically with L-alanosine (10% in the vehicle above) on one flank organ while the other organ received an equal amount of just the vehicle. After three days of daily treatments, the hair follicles from the flank organs were removed and the adenosine nucleotide contents were determined.

[3] = test system: aspartate transcarbamylase; assay: Aspartate transcarbamylase activity in hamster hair follicles after topical treatment; type: in vivo; settings: 10% solution, two treatments over a 24 hour period
[4] = test system: pyrimidine nucleotide content of hair follicles; assay: Pyrimidine nucleotide content of hair follicles after topical treatment; type: in vivo, hamster; settings: same treatment protocol as nucleotide content in Example 1 (10%, three days daily)
[5] = L-alanosine 0.5%, 25 μl, pH 7.5, three weeks
[6] = L-alanosine 1.0%, 25 μl, pH 7.5, three weeks
[7] = L-alanosine 2.0%, 25 μl, pH 7.5, three weeks
[8] = L-alanosine 6.0%, 25 μl, pH 7.5, three weeks
[9] = PALA 2%, 10 μl, pH 4.5, three weeks
[10] = PALA 2%, 25 μl, pH 4.5, three weeks
[11] = PALA 4%, 25 μl, pH 4.5, three weeks
[12] = PALA 6%, 10 μl, pH 4.5, three weeks
[13] = PALA 6%, 25 μl, pH 4.5, three weeks

## N[C@@H](CN(O)N=O)C(=O)O [L-alanosine, L-2-amino-3-(N-hydroxy, N-nitrosamino) propionic acid]
Hamster flank organ; L-alanosine 0.1%, 25 μl, pH 7.5, once a day, five days a week, three weeks
  Hamster Flank Organ Hair Mass, Treated Mean: 0.68 mg
Hamster flank organ; L-alanosine 0.1%, 25 μl, pH 7.5, three weeks
  Percent Inhibition of Hair Growth: 18%
Hamster flank organ; [5]
  Hamster Flank Organ Hair Mass, Treated Mean: 0.67 mg
  Percent Inhibition of Hair Growth: 32%
Hamster flank organ; [6]
  Hamster Flank Organ Hair Mass, Treated Mean: 0.38 mg
  Percent Inhibition of Hair Growth: 47%
Hamster flank organ; [7]
  Hamster Flank Organ Hair Mass, Treated Mean: 0.51 mg
  Percent Inhibition of Hair Growth: 61%
Hamster flank organ; [8]
  Hamster Flank Organ Hair Mass, Treated Mean: 0.07 mg
  Percent Inhibition of Hair Growth: 92%
Hamster flank organ; treated vs untreated organ, Table 1 footnote
  Nature of the hair on the treated organ: more vellous
[1]
  inhibition of adenylosuccinate synthetase activity: about 49%
[2]
  reduction in ADP levels in hair follicles: 40%
  reduction in AMP levels in hair follicles: 50%
  reduction in ATP levels in hair follicles: 29%

## O=C(O)C[C@H](NC(=O)CP(=O)(O)O)C(=O)O [PALA, N-phosphonacetyl-L-aspartic acid]
[3]
  reduction of aspartate transcarbamylase activity: 72%
Hamster flank organ; [9]
  Hamster Flank Organ Hair Mass, Treated Mean: 1.36 mg
  Percent Inhibition of Hair Growth: 13%
Hamster flank organ; [10]
  Hamster Flank Organ Hair Mass, Treated Mean: 1.34 mg
  Percent Inhibition of Hair Growth: 19%
Hamster flank organ; [11]
  Hamster Flank Organ Hair Mass, Treated Mean: 0.85 mg
  Percent Inhibition of Hair Growth: 50%
Hamster flank organ; [12]
  Hamster Flank Organ Hair Mass, Treated Mean: 0.37 mg
  Percent Inhibition of Hair Growth: 78%
Hamster flank organ; [13]
  Hamster Flank Organ Hair Mass, Treated Mean: 0.23 mg
  Percent Inhibition of Hair Growth: 87%
[4]
  inhibition of CDP (hair follicle content): 19%
  inhibition of CTP (hair follicle content): 60%
  inhibition of UDP (hair follicle content): 25%
  inhibition of UTP (hair follicle content): 50%

Reference: patent US5095007A, “Alteration of rate and character of hair growth” (priority 1990, dated 1992)
